Data from patent US20220388957A1, “COMPOUNDS AND COMPOSITIONS FOR TREATING CONDITIONS ASSOCIATED WITH STING ACTIVITY” (IFM Due, Inc., priority 2019, published 2022).

Molecular target: T1, Human STING (Homo sapiens, UniProt Q86WV6, G230A/H232R/R293Q/R71H)
T1 construct: host or cells: THP1-Dual KO-IFNAR2 cells (human monocytic reporter line)
Experiment: STING reporter assay (luciferase) in THP1-Dual KO-IFNAR2 cells stimulated with 2′3′cGAMP
Type: cell-based
Conditions: 2′3′cGAMP 15 μM, 24 h
Method: STING pathway activation by the compounds described herein was measured using THP1-Dual™ cells (KO-IFNAR2).
THP1-Dual™ KO-IFNAR2 Cells (obtained from invivogen) were maintained in RPMI, 10% FCS, 5 ml P/S, 2 mM L-glut, 10 mM Hepes, and 1 mM sodium pyruvate. Compounds were spotted in empty 384 well tissue culture plates (Greiner 781182) by Echo for a final concentration of 0.0017-100 μM. Cells were plated into the TC plates at […], 2×10E6 cells/mL. For activation with STING ligand, 2′3′cGAMP (MW 718.38, obtained from Invivogen), was prepared in Optimem media.
The following solutions were prepared for each 1×384 plate: • o Solution A: 2 mL Optimem with one of the following stimuli: • 60 uL of 10 mM 2′3′cGAMP->150 μM stock • Solution B: 2 mL Optimem with 60 μL Lipofectamine 2000->Incubate 5 min at RT
2 mL of solution A and 2 ml Solution B was mixed and incubated for 20 min at room temperature (RT). 20 μL of transfection solution (A+B) was added on top of the plated cells, with a final 2′3′cGAMP concentration of 15 μM. The plates were then centrifuged immediately at 340 g for 1 minute, after which they were incubated at 37° C., 5% CO2, >98% humidity for 24 h. Luciferase reporter activity was then measured. EC50 values were calculated by using standard methods known in the art.
Luciferase reporter assay: 10 μL of supernatant from the assay was transferred to white 384-plate with flat bottom and squared wells. One pouch of QUANTI-Luc™ Plus was dissolved in 25 mL of water. 100 μL of QLC Stabilizer per 25 mL of QUANTI-Luc™ Plus solution was added. 50 μL of QUANTI-Luc™ Plus/QLC solution per well was then added. Luminescence was measured on a Platereader (e.g., Spectramax I3X (Molecular Devices GF3637001)).
Luciferase reporter activity was then measured. EC50 values were calculated by using standard methods known in the art.

T1 sequence (Q86WV6 whole entry R71H/G230A/H232R/R293Q): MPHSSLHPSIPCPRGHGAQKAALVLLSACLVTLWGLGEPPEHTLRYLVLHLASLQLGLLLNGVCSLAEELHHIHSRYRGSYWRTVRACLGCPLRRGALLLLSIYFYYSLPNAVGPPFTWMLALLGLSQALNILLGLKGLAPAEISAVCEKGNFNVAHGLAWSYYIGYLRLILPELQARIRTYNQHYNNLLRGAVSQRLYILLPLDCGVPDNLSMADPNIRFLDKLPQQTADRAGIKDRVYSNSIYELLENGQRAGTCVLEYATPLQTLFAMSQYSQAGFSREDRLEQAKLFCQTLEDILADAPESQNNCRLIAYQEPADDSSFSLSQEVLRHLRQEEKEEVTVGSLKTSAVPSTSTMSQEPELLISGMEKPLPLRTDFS

Row | SMILES | EC50 (numeric bound) [µM] | EC50 (class symbols) [µM]
1 | CC1CNCCC1NS(=O)(=O)c1c[nH]c2nccc(Cl)c12 (stereo not shown) [Compound 112] | > 100 | 
2 | O=S(=O)(Cc1cccc(C(F)(F)F)c1)Nc1c[nH]c2cc(F)c(F)cc12 [Compound 131, N-(5,6-difluoro-1H-indol-3-yl)-1-(3-(trifluoromethyl)phenyl) methanesulfonamide] |  | 5 to 100
3 | O=S(=O)(Nc1c[nH]nc1-c1ccccc1)c1ccc(C(F)(F)F)cc1 [Compound 106] |  | 5 to 100
4 | CCCCCCCCS(=O)(=O)Nc1c[nH]c2cc(F)c(F)cc12 [Compound 128, N-(5,6-difluoro-1H-indol-3-yl)octane-1-sulfonamide] |  | 1 to 5

Now from value to compound:

Row | EC50 (numeric bound) [µM] | EC50 (class symbols) [µM] | SMILES
5 |  | 5 to 100 | CC(C)c1ccc(S(=O)(=O)Nc2c[nH]c3cc(F)c(F)cc23)cc1 [Compound 141, N-(5,6-difluoro-1H-indol-3-yl)-4-isopropylbenzene-sulfonamide]
6 |  | 5 to 100 | O=S(=O)(Nc1c[nH]c2cc(F)c(F)cc12)c1ccc2c(c1)CCCC2 [Compound 139, N-(5,6-difluoro-1H-indol-3-yl)-5,6,7,8-tetrahydro-naphthalene-2-sulfonamide]
7 |  | 5 to 100 | O=S(=O)(Nc1c[nH]c2cc(F)c(F)cc12)c1ccc2c(c1)CCC2 [Compound 135, N-(5,6-difluoro-1H-indol-3-yl)-2,3-dihydro-1H-indene-5-sulfonamide]
